# Values joined by “and” are separate entries in the source; they are usually repeats but may differ in a detail not shown here. Equal entries are not always repeated.
# System: ANGIOTENSIN II (AII) VASOPRESSOR RESPONSE
# Test: AII Challenge: angiotensin II vasopressor response in conscious spontaneously hypertensive rats
# Type: in vivo, Conscious Male Okamoto-Aoki SHR (rat)
# Settings: 10 mg/kg i.v.; for % Inhibition / Average Change: SHR n=2; for Response After AII / Response Change / Control Before AII: individual rat, SHR
# Excerpt: By administering a compound of this invention to a rat, and then challenging with angiotensin II, a blockage of the vasopressor response is realized.
# Conscious Male Okamoto-Aoki SHR, 16-20 weeks old, weighing approximately 330 g are purchased from Charles River Labs (Wilmington, Mass.). Conscious rats are restrained in a supine position with elastic tape. The area at the base of the tail is locally anesthetized by subcutaneous infiltration with 2% procaine. The ventral caudal artery and vein are isolated, and a cannula made of polyethylene (PE) 10-20 tubing (fused together by heat) is passed into the lower abdominal aorta and vena cava, respectively. The cannula is secured, heparinized (1,000 I.U./ml), sealed and the wound is closed. The animals are placed in plastic restraining cages in an upright position. The cannula is attached to a Statham P23Db pressure transducer, and pulsatile blood pressure is recorded to 10-15 minutes with a Gould Brush recorder. (Chan et al., (Drug Development Res., 18:75-94, 1989).
# Angiotensin II (human sequence, Sigma Chem. Co., St. Louis, Mo.) of 0.05 and 0.1 ug/kg i.v. is injected into all rats (predosing response). Then a test compound, vehicle or a known angiotensin II antagonist is administered i.v., i.p. or orally to each set of rats. The two doses of angiotensin II are given to each rat again at 30, 60, 90, 120, 180, 240 and 300 minutes post dosing the compound or vehicle. The vasopressor response of angiotensin II is measured for the increase in systolic blood pressure in mmHg. The percentage of antagonism or blockade of the vasopressor response of angiotensin II by a compound is calculated using the vasopressor response (increase in systolic blood pressure) of angiotensin II of each rat predosing the compound as 100%. A compound is considered active if at 30 mg/kg i.v. it antagonized at least 50% of the response.
# [1] = AII 0.05 mcg/kg IV, 30 min post dose
# [2] = AII 0.05 mcg/kg IV, 60 min post dose
# [3] = AII 0.05 mcg/kg IV, 90 min post dose
# [4] = AII 0.05 mcg/kg IV, 120 min post dose
# [5] = AII 0.05 mcg/kg IV, 180 min post dose
# [6] = AII 0.05 mcg/kg IV, 240 min post dose
# [7] = AII 0.05 mcg/kg IV, 300 min post dose
# [8] = AII 0.1 mcg/kg IV, 30 min post dose
# [9] = AII 0.1 mcg/kg IV, 60 min post dose
# [10] = AII 0.1 mcg/kg IV, 90 min post dose
# [11] = AII 0.1 mcg/kg IV, 120 min post dose
# [12] = AII 0.1 mcg/kg IV, 180 min post dose
# [13] = AII 0.1 mcg/kg IV, 240 min post dose
# [14] = AII 0.1 mcg/kg IV, 300 min post dose
# [15] = AII 0.05 mcg/kg IV, 30 min post dose, 10 mg/kg
# [16] = AII 0.05 mcg/kg IV, 60 min post dose, 10 mg/kg
# [17] = AII 0.05 mcg/kg IV, 90 min post dose, 10 mg/kg
# [18] = AII 0.05 mcg/kg IV, 180 min post dose, 10 mg/kg
# [19] = AII 0.05 mcg/kg IV, 240 min post dose, 10 mg/kg
# [20] = AII 0.05 mcg/kg IV, 300 min post dose, 10 mg/kg
# [21] = AII 0.1 mcg/kg IV, 30 min post dose, 10 mg/kg
# [22] = AII 0.1 mcg/kg IV, 60 min post dose, 10 mg/kg
# [23] = AII 0.1 mcg/kg IV, 90 min post dose, 10 mg/kg
# [24] = AII 0.1 mcg/kg IV, 120 min post dose, 10 mg/kg
# [25] = AII 0.1 mcg/kg IV, 180 min post dose, 10 mg/kg
# [26] = AII 0.1 mcg/kg IV, 240 min post dose, 10 mg/kg
# [27] = AII 0.1 mcg/kg IV, 300 min post dose, 10 mg/kg
structure (smiles),measurement,setting,value
"CCCCc1nc2ccc([C@H]3C[C@H](CO)ON3C)cc2c(=O)n1Cc1ccc(-c2ccccc2-c2nnn[nH]2)cc1 (relative stereo) [Example 16, TRANS-2-butyl-6-[5-(hydroxymethyl)-2-methyl-3-isoxazolidinyl]-3-[[2'-(1H-tetrazol-5-yl)[1,1'-biphenyl]-4-yl]methyl]-4(3H)-quinazolinone]",% Inhibition,[1],85%
same,Average Change,[1],8 mmHg
same,% Inhibition,[2],76%
same,Average Change,[2],12.5 mmHg
same,% Inhibition,[3],62%
same,Average Change,[3],20 mmHg
same,% Inhibition,[4],67%
same,Average Change,[4],17.5 mmHg
same,% Inhibition,[5],50%
same,Average Change,[5],26.5 mmHg
same,% Inhibition,[6],50%
same,Average Change,[6],26.5 mmHg
same,% Inhibition,[7],19%
same,Average Change,[7],42.5 mmHg
same,% Inhibition,[8],81%
same,Average Change,[8],10 mmHg
same,% Inhibition,[9],79%
same,Average Change,[9],11.5 mmHg
same,% Inhibition,[10],77%
same,Average Change,[10],12.5 mmHg
same,% Inhibition,[11],68%
same,Average Change,[11],17.5 mmHg
same,% Inhibition,[12],54%
same,Average Change,[12],25 mmHg
same,% Inhibition,[13],54%
same,Average Change,[13],25 mmHg
same,% Inhibition,[14],26%
same,Average Change,[14],40 mmHg
same,Response After AII,[15],198 mmHg and 190 mmHg
same,Response Change,[15],3 mmHg and 13 mmHg
same,Response After AII,[16],200 mmHg and 180 mmHg
same,Response Change,[16],5 mmHg and 20 mmHg
same,Response After AII,[3],190 mmHg
same,Response After AII,[17],215 mmHg
same,Response Change,[17],10 mmHg and 30 mmHg
same,Response After AII,[4],210 mmHg
same,Response Change,"AII 0.05 mcg/kg IV, 120 min post dose, 10 mg/kg",15 mmHg and 20 mmHg
same,Response After AII,[5],218 mmHg
same,Response After AII,[18],195 mmHg
same,Response Change,[18],23 mmHg and 30 mmHg
same,Response After AII,[6],218 mmHg
same,Response After AII,[19],195 mmHg
same,Response Change,[19],23 mmHg and 30 mmHg
same,Response After AII,[7],230 mmHg
same,Response After AII,[20],225 mmHg
same,Response Change,[20],35 mmHg and 50 mmHg
same,Response After AII,[21],205 mmHg and 175 mmHg
same,Response Change,[21],15 mmHg and 5 mmHg
same,Response After AII,[22],210 mmHg and 173 mmHg
same,Response Change,[22],15 mmHg and 8 mmHg
same,Response After AII,[10],210 mmHg
same,Response After AII,[23],185 mmHg
same,Response Change,[23],10 mmHg and 15 mmHg
same,Response After AII,[24],220 mmHg and 200 mmHg
same,Response Change,[24],20 mmHg and 15 mmHg
same,Response After AII,[25],215 mmHg and 205 mmHg
same,Response Change,[25],15 mmHg and 35 mmHg
same,Response After AII,[26],215 mmHg and 205 mmHg
same,Response Change,[26],15 mmHg and 35 mmHg
same,Response After AII,[27],250 mmHg and 230 mmHg
same,Response Change,[27],30 mmHg and 50 mmHg
same,Control Before AII,"before AII 0.05 mcg/kg IV, 30 min post dose, 10 mg/kg",195 mmHg and 177 mmHg
same,Control Before AII,"before AII 0.05 mcg/kg IV, 60 min post dose, 10 mg/kg",195 mmHg and 160 mmHg
same,Control Before AII,"before AII 0.05 mcg/kg IV, 90 min post dose, 10 mg/kg",205 mmHg and 160 mmHg
same,Control Before AII,"before AII 0.05 mcg/kg IV, 120 min post dose, 10 mg/kg",195 mmHg and 190 mmHg
same,Control Before AII,"before AII 0.05 mcg/kg IV, 180 min post dose, 10 mg/kg",195 mmHg and 165 mmHg
same,Control Before AII,"before AII 0.05 mcg/kg IV, 240 min post dose, 10 mg/kg",195 mmHg and 165 mmHg
same,Control Before AII,"before AII 0.05 mcg/kg IV, 300 min post dose, 10 mg/kg",195 mmHg and 175 mmHg
same,Control Before AII,"before AII 0.1 mcg/kg IV, 30 min post dose, 10 mg/kg",190 mmHg and 170 mmHg
same,Control Before AII,"before AII 0.1 mcg/kg IV, 60 min post dose, 10 mg/kg",195 mmHg and 165 mmHg
same,Control Before AII,"before AII 0.1 mcg/kg IV, 90 min post dose, 10 mg/kg",200 mmHg and 170 mmHg
same,Control Before AII,"before AII 0.1 mcg/kg IV, 120 min post dose, 10 mg/kg",200 mmHg and 185 mmHg
same,Control Before AII,"before AII 0.1 mcg/kg IV, 180 min post dose, 10 mg/kg",200 mmHg and 170 mmHg
same,Control Before AII,"before AII 0.1 mcg/kg IV, 240 min post dose, 10 mg/kg",200 mmHg and 170 mmHg
same,Control Before AII,"before AII 0.1 mcg/kg IV, 300 min post dose, 10 mg/kg",220 mmHg and 180 mmHg
